Laboratory results taken from ChEMBL document CHEMBL4507295 (2021).

Columns and labels:
[1] = biological target: Atypical kinase COQ8B, mitochondrial (Homo sapiens) (UniProt Q96D53); conditions: Compound concentration 1000.0 nM
[2] = biological target: Aurora kinase A (Homo sapiens) (UniProt O14965); conditions: Compound concentration 1000.0 nM
[3] = biological target: Bone morphogenetic protein receptor type-2 (Homo sapiens) (UniProt Q13873); conditions: Compound concentration 1000.0 nM
[4] = biological target: Calcium/calmodulin-dependent protein kinase type II subunit beta (Homo sapiens) (UniProt Q13554); conditions: Compound concentration 1000.0 nM
[5] = biological target: Calcium/calmodulin-dependent protein kinase type II subunit gamma (Homo sapiens) (UniProt Q13555); conditions: Compound concentration 1000.0 nM
[6] = biological target: Cyclin-dependent kinase 4 (Homo sapiens) (UniProt P11802); conditions: Compound concentration 1000.0 nM
[7] = biological target: Dual specificity protein kinase CLK3 (Homo sapiens) (UniProt P49761); conditions: Compound concentration 1000.0 nM
[8] = biological target: Macrophage colony-stimulating factor 1 receptor (Homo sapiens) (UniProt P07333); conditions: Compound concentration 1000.0 nM
[9] = biological target: Tyrosine-protein kinase CSK (Homo sapiens) (UniProt P41240); conditions: Compound concentration 1000.0 nM
[10] = biological target: Casein kinase II subunit alpha' (Homo sapiens) (UniProt P19784); conditions: Compound concentration 1000.0 nM
[11] = biological target: Epithelial discoidin domain-containing receptor 1 (Homo sapiens) (UniProt Q08345); conditions: Compound concentration 1000.0 nM
[12] = biological target: Dual specificity tyrosine-phosphorylation-regulated kinase 2 (Homo sapiens) (UniProt Q92630); conditions: Compound concentration 1000.0 nM
Dual specificity tyrosine-phosphorylation-regulated kinase 2 (Homo sapiens), sequence (Q92630 whole entry): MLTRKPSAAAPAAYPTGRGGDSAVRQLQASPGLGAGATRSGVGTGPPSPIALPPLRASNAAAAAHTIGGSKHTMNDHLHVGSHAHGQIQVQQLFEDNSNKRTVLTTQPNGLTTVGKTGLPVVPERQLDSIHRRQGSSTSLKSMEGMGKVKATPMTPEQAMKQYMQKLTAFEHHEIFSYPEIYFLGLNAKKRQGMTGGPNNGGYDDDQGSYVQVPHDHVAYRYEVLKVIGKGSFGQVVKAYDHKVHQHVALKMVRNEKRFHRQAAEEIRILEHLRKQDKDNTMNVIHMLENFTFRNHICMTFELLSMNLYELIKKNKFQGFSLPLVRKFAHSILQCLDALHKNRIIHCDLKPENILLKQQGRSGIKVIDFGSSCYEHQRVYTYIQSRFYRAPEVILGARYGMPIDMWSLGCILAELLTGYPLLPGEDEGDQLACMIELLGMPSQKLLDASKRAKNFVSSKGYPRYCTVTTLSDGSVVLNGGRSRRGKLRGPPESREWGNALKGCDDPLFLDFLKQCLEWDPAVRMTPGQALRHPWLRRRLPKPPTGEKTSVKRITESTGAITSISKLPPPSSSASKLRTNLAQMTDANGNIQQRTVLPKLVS

[13] = system: Epidermal growth factor receptor (Homo sapiens), P00533 [G719C]; conditions: Compound concentration 1000.0 nM
[14] = system: Epidermal growth factor receptor (Homo sapiens), P00533 [UNDEFINED MUTATION]; conditions: Compound concentration 1000.0 nM
[15] = system: Epidermal growth factor receptor (Homo sapiens), P00533 [T790M]; conditions: Compound concentration 1000.0 nM
[16] = biological target: Ephrin type-A receptor 5 (Homo sapiens) (UniProt P54756); conditions: Compound concentration 1000.0 nM
[17] = biological target: Ephrin type-A receptor 8 (Homo sapiens) (UniProt P29322); conditions: Compound concentration 1000.0 nM
[18] = biological target: Ephrin type-B receptor 1 (Homo sapiens) (UniProt P54762); conditions: Compound concentration 1000.0 nM
[19] = biological target: Tyrosine-protein kinase Fer (Homo sapiens) (UniProt P16591); conditions: Compound concentration 1000.0 nM
[20] = biological target: Serine/threonine-protein kinase ICK (Homo sapiens) (UniProt Q9UPZ9); conditions: Compound concentration 1000.0 nM
[21] = biological target: Inhibitor of nuclear factor kappa-B kinase subunit alpha (Homo sapiens) (UniProt O15111); conditions: Compound concentration 1000.0 nM
[22] = biological target: Inhibitor of nuclear factor kappa-B kinase subunit beta (Homo sapiens) (UniProt O14920); conditions: Compound concentration 1000.0 nM
[23] = biological target: Tyrosine-protein kinase JAK1 (Homo sapiens) (UniProt P23458); conditions: Compound concentration 1000.0 nM
[24] = biological target: Mitogen-activated protein kinase 8 (Homo sapiens) (UniProt P45983); conditions: Compound concentration 1000.0 nM
[25] = system: Mast/stem cell growth factor receptor Kit (Homo sapiens), P10721 [V559D]; conditions: Compound concentration 1000.0 nM
Mast/stem cell growth factor receptor Kit (Homo sapiens), P10721 [V559D], sequence (P10721 whole entry V559D): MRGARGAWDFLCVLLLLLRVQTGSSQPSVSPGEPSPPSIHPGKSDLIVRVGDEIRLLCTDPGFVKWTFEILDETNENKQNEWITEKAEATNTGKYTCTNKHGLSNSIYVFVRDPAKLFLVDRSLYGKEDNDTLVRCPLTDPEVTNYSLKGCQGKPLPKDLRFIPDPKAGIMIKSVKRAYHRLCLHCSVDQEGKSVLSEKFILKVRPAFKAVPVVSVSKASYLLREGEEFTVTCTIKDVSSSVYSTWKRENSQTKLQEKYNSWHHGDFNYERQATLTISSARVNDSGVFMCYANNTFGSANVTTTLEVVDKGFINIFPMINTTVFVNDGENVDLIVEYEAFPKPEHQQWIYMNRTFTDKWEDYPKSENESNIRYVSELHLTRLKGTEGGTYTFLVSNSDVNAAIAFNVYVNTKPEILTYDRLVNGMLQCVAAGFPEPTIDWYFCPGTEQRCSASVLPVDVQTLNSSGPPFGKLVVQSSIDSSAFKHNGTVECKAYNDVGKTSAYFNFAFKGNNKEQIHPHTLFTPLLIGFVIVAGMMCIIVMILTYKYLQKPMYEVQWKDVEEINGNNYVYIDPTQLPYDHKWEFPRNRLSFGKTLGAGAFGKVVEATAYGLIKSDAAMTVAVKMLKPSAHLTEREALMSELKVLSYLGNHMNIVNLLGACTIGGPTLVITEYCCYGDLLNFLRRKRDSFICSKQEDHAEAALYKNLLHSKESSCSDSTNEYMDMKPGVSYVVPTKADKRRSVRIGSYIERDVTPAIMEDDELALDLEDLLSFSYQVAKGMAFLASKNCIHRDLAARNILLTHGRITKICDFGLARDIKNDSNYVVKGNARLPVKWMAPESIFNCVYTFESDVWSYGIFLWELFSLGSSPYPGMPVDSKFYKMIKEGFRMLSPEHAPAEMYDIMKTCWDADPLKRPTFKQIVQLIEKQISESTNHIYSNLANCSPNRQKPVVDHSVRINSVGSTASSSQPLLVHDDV

[26] = biological target: Mitogen-activated protein kinase kinase kinase kinase 5 (Homo sapiens) (UniProt Q9Y4K4); conditions: Compound concentration 1000.0 nM
[27] = biological target: Macrophage-stimulating protein receptor (Homo sapiens) (UniProt Q04912); conditions: Compound concentration 1000.0 nM
[28] = biological target: Serine/threonine-protein kinase Nek6 (Homo sapiens) (UniProt Q9HC98); conditions: Compound concentration 1000.0 nM
[29] = biological target: Serine/threonine-protein kinase PAK 6 (Homo sapiens) (UniProt Q9NQU5); conditions: Compound concentration 1000.0 nM
Serine/threonine-protein kinase PAK 6 (Homo sapiens), sequence (Q9NQU5 whole entry, looked up): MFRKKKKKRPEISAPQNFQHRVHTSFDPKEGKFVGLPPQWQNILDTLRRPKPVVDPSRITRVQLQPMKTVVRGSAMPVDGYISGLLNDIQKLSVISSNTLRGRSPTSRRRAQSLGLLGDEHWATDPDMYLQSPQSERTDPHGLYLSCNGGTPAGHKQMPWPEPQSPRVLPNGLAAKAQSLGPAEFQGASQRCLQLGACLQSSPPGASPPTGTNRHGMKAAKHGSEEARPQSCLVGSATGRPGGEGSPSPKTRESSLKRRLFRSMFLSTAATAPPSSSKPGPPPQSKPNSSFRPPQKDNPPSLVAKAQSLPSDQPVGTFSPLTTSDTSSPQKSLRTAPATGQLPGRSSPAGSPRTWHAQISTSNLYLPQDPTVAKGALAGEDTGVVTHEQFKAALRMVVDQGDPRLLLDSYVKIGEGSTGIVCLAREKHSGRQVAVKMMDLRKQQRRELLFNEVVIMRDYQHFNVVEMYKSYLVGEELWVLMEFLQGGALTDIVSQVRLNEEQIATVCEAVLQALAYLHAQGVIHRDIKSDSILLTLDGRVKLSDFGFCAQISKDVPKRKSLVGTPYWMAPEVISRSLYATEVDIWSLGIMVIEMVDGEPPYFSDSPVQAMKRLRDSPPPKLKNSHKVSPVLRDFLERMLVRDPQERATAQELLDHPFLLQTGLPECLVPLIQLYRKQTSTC

[30] = biological target: Platelet-derived growth factor receptor beta (Homo sapiens) (UniProt P09619); conditions: Compound concentration 1000.0 nM
[31] = biological target: Phosphatidylinositol 4,5-bisphosphate 3-kinase catalytic subunit delta isoform (Homo sapiens) (UniProt O00329); conditions: Compound concentration 1000.0 nM
[32] = biological target: Phosphatidylinositol 4-kinase beta (Homo sapiens) (UniProt Q9UBF8); conditions: Compound concentration 1000.0 nM
Phosphatidylinositol 4-kinase beta (Homo sapiens), sequence (Q9UBF8 2-816 limits assumed): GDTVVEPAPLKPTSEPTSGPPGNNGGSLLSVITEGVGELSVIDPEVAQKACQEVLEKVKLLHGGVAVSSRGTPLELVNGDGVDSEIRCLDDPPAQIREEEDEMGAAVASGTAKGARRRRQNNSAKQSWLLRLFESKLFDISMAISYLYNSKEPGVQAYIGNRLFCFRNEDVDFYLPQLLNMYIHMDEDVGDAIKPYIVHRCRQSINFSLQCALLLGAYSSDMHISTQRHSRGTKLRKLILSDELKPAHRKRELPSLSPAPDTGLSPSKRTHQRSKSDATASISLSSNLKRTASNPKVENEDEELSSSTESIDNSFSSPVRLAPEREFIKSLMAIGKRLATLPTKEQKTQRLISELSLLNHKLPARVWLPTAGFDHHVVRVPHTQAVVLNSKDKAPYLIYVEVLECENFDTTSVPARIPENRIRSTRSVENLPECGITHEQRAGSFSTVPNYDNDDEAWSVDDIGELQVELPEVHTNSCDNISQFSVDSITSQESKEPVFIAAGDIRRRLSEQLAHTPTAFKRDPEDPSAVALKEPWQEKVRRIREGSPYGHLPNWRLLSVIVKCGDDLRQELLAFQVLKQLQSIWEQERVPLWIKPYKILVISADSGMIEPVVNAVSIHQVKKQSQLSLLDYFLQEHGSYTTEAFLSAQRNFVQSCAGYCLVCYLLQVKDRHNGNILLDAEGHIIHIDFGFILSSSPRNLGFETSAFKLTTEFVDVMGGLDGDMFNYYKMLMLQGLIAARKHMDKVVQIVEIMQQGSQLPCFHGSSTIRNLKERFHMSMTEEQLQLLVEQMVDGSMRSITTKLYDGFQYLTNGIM

[33] = biological target: Serine/threonine-protein kinase pim-2 (Homo sapiens) (UniProt Q9P1W9); conditions: Compound concentration 1000.0 nM
[34] = biological target: Serine/threonine-protein kinase N1 (Homo sapiens) (UniProt Q16512); conditions: Compound concentration 1000.0 nM
[35] = biological target: Serine/threonine-protein kinase D1 (Homo sapiens) (UniProt Q15139); conditions: Compound concentration 1000.0 nM
[36] = biological target: Interferon-induced, double-stranded RNA-activated protein kinase (Homo sapiens) (UniProt P19525); conditions: Compound concentration 1000.0 nM
[37] = biological target: SRSF protein kinase 1 (Homo sapiens) (UniProt Q96SB4); conditions: Compound concentration 1000.0 nM
[38] = biological target: SRSF protein kinase 3 (Homo sapiens) (UniProt Q9UPE1); conditions: Compound concentration 1000.0 nM
[39] = biological target: Serine/threonine-protein kinase 16 (Homo sapiens) (UniProt O75716); conditions: Compound concentration 1000.0 nM
Serine/threonine-protein kinase 16 (Homo sapiens), sequence (O75716 whole entry): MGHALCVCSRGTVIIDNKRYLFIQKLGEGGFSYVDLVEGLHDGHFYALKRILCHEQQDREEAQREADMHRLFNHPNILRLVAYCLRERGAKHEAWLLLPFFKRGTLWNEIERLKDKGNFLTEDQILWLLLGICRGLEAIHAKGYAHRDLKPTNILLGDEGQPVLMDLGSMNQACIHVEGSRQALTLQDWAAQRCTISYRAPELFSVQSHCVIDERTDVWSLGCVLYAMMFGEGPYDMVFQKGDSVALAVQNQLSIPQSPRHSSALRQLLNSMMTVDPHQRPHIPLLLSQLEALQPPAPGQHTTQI

[40] = biological target: Mitogen-activated protein kinase kinase kinase 7 (Homo sapiens) (UniProt O43318); conditions: Compound concentration 1000.0 nM
Mitogen-activated protein kinase kinase kinase 7 (Homo sapiens), sequence (O43318 whole entry): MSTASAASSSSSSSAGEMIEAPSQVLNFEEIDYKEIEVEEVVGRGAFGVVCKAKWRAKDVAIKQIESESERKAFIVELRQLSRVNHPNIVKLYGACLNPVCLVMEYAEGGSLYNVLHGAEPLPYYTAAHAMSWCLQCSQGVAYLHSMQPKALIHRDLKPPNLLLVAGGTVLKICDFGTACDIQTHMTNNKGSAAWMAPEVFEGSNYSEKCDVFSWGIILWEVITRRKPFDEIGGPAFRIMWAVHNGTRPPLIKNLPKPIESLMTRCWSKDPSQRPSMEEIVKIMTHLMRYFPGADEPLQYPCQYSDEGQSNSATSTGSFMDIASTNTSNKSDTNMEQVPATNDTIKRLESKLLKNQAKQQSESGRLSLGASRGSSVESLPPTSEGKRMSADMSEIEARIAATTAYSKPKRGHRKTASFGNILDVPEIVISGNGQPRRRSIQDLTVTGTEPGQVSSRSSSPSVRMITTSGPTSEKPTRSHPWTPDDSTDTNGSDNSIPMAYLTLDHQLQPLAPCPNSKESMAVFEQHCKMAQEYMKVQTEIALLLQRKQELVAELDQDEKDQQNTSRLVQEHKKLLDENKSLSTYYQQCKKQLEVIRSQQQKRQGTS

[41] = biological target: Testis-specific serine/threonine-protein kinase 3 (Homo sapiens) (UniProt Q96PN8); conditions: Compound concentration 1000.0 nM
[42] = biological target: Phosphatidylinositol 3-kinase catalytic subunit type 3 (Homo sapiens) (UniProt Q8NEB9); conditions: Compound concentration 1000.0 nM
[43] = biological target: Wee1-like protein kinase 2 (Homo sapiens) (UniProt P0C1S8); conditions: Compound concentration 1000.0 nM
[44] = biological target: Serine/threonine-protein kinase 25 (Homo sapiens) (UniProt O00506); conditions: Compound concentration 1000.0 nM
[45] = biological target: 5-hydroxytryptamine receptor 2B (Homo sapiens) (UniProt P41595); conditions: Compound concentration 10.0 uM

Bone morphogenetic protein receptor type-2 (Homo sapiens), sequence (Q13873 whole entry): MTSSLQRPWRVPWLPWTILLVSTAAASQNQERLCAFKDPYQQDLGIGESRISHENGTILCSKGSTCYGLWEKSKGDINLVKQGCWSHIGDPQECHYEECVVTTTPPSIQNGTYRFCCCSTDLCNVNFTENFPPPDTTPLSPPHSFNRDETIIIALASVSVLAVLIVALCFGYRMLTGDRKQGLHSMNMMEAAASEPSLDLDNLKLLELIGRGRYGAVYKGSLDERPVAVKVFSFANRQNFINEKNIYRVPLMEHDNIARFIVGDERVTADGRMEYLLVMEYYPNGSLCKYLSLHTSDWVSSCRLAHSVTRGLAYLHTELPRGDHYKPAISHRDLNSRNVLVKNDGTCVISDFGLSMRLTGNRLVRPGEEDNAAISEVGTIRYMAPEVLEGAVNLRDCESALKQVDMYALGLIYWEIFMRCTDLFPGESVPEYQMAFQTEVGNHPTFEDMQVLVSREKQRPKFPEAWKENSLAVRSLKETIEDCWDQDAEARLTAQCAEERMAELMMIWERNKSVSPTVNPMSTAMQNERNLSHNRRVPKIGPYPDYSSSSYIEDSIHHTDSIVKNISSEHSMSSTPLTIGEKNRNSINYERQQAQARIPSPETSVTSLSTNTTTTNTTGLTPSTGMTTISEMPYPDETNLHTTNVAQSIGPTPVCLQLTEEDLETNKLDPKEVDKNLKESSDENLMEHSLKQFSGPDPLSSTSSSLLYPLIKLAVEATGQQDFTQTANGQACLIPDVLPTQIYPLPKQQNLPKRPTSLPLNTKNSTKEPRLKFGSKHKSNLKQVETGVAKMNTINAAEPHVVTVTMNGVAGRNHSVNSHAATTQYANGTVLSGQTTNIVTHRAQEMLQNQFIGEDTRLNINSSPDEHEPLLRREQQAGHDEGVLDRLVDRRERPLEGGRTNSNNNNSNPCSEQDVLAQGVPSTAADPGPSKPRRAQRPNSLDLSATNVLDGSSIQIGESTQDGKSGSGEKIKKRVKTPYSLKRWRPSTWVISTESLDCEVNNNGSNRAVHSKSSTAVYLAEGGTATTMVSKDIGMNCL

N#CC1(c2ccccn2)CCN(Cc2cc(C(=O)O)c(=O)n3ccccc23)CC1 [MSD-M1PAM]
inactive: residual activity [1] 90% | residual activity [2] 100% | residual activity [3] 89% | residual activity [4] 100% | residual activity [5] 100% | residual activity [6] 100% | residual activity [7] 100% | residual activity [8] 95% | residual activity [9] 100% | residual activity [10] 86% | residual activity [11] 100% | residual activity [12] 95% | residual activity [13] 100% | residual activity [14] 96% | residual activity [15] 100% | residual activity [16] 89% | residual activity [17] 100% | residual activity [18] 100% | residual activity [19] 100% | residual activity [20] 75% | residual activity [21] 100% | residual activity [22] 100% | residual activity [23] 84% | residual activity [24] 85% | residual activity [25] 100% | residual activity [26] 87% | residual activity [27] 100% | residual activity [28] 100% | residual activity [29] 100% | residual activity [30] 100% | residual activity [31] 91% | residual activity [32] 74% | residual activity [33] 100% | residual activity [34] 100% | residual activity [35] 87% | residual activity [36] 95% | residual activity [37] 100% | residual activity [38] 95% | residual activity [39] 100% | residual activity [40] 90% | residual activity [41] 100% | residual activity [42] 70% | residual activity [43] 100% | residual activity [44] 100% | inhibition [45] 3.23%

N#CC1(c2ccccn2)CCN(Cc2cc(C(=O)N3CCCC3)c(=O)n3ccccc23)CC1
inactive: residual activity [1] 100% | residual activity [2] 90% | residual activity [3] 92% | residual activity [4] 89% | residual activity [5] 100% | residual activity [6] 100% | residual activity [7] 99% | residual activity [8] 94% | residual activity [9] 91% | residual activity [10] 98% | residual activity [11] 85% | residual activity [12] 100% | residual activity [13] 80% | residual activity [14] 81% | residual activity [15] 90% | residual activity [16] 100% | residual activity [17] 100% | residual activity [18] 91% | residual activity [19] 89% | residual activity [20] 100% | residual activity [21] 94% | residual activity [22] 99% | residual activity [23] 100% | residual activity [24] 96% | residual activity [25] 100% | residual activity [26] 75% | residual activity [27] 100% | residual activity [28] 100% | residual activity [29] 100% | residual activity [30] 86% | residual activity [31] 61% | residual activity [32] 100% | residual activity [33] 77% | residual activity [34] 91% | residual activity [35] 95% | residual activity [36] 100% | residual activity [37] 85% | residual activity [38] 82% | residual activity [39] 100% | residual activity [40] 99% | residual activity [41] 100% | residual activity [42] 89% | residual activity [43] 91% | residual activity [44] 97% | inhibition [45] 5.44%
